# Source: ChEMBL document CHEMBL1201862, “PubChem BioAssay data set” (2004)
# The source made the active and inactive calls. Rule as the data show it: actives have a measured IC50 and inactives only a lower limit.
# Target: Envelope glycoprotein gp160 (Human immunodeficiency virus 1, UniProt Q6QLK5)
# Assay: cell-free HIV fusion peptide-binding blockers – biochemical, uHTS, fluorescence dequenching, […] (AID 1986)
# Envelope glycoprotein gp160, sequence (Q6QLK5 whole entry, the tested form may be a part): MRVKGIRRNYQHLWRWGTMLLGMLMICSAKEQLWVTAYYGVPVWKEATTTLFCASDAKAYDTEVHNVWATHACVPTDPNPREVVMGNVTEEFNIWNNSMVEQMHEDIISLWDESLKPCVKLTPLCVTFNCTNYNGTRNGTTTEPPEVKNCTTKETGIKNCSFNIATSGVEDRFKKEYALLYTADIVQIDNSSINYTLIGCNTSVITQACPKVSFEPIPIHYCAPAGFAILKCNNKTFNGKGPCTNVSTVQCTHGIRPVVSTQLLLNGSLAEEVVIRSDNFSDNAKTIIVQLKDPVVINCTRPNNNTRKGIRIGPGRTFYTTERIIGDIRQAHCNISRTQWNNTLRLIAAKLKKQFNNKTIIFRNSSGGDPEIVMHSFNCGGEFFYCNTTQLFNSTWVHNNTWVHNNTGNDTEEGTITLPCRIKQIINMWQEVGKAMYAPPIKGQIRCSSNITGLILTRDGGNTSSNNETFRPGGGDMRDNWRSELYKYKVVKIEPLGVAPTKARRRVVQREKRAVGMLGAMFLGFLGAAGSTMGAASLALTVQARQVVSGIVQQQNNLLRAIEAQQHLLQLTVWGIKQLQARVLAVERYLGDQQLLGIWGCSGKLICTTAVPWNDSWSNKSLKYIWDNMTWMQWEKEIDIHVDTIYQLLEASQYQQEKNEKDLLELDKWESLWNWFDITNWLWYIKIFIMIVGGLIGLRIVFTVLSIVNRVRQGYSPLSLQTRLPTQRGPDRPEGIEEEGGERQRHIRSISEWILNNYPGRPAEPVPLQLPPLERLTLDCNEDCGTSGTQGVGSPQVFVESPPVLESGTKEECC
row,Compound,IC50
1,COc1cc(Cl)cc(C(c2c(C(=O)O)[nH]c3ccccc23)c2c(C(=O)O)[nH]c3ccccc23)c1O,4.81 µM (active)
2,O=C1N=C(NS(=O)(=O)c2ccccc2)S/C1=C\c1cc([N+](=O)[O-])ccc1O,12.7 µM (active)
3,N=C1/C(=C/c2ccc(-c3cccc(C(=O)O)c3)o2)C(=O)N=C2SC=C(c3ccccc3)N12,6.34 µM (active)
4,COc1cc(/C=C2\C(=N)N3N=C(S(C)(=O)=O)SC3=NC2=O)ccc1OS(=O)(=O)c1ccccc1,19.3 µM (active)
5,CCS(=O)(=O)C1=NSC2=NC(=O)/C(=C\c3ccc(OS(=O)(=O)c4ccccc4)cc3)C(=N)N21,19.9 µM (active)
